SMILES strings stand for the structures.

One data set deals with T1, cathepsin K (Homo sapiens, UniProt P43235).
T1 construct: made in house; host or cells: not fixed: E coli, Pichia or Baculovirus systems named as options
T1 sequence (P43235 115-329): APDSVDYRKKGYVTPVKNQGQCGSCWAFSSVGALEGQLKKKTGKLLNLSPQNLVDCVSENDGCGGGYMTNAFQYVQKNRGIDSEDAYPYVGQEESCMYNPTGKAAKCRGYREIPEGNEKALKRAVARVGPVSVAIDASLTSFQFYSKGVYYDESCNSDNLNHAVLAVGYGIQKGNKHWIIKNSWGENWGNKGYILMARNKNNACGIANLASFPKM
Briefly: Determination of cathepsin K proteolytic catalytic activity (fluorogenic peptide substrate). Type of data set: biochemical. The following applies: human recombinant enzyme. The protocol: Convenient assays for cathepsin K are carried out using human recombinant enzyme, such as that described in PDB.
The recombinant cathepsin K can be expressed in a variety of commercially available expression systems including E coli, Pichia and Baculovirus systems.
The purified enzyme is activated by removal of the prosequence by conventional methods.
Standard assay conditions for the determination of kinetic constants used a fluorogenic peptide substrate, typically H-D-Ala-Leu-Lys-AMC, and were determined in either 100 mM Mes/Tris, pH 7.0 containing 1 mM EDTA and 10 mM 2-mercaptoethanol or 100 mMNa phosphate, imM EDTA, 0.1% PEG4000 pH 6.5 or 100 mM Na acetate, pH 5.5 containing 5 mM EDTA and 20 mM cysteine, in each case optionally with […] as stabiliser. The enzyme concentration used was 5 nM. The stock substrate solution was prepared at 10 mM in DMSO. Screens were carried out at a fixed substrate concentration of 60 μM and detailed kinetic studies with doubling dilutions of substrate from 250 μM. The total DMSO concentration in the assay was kept below 3%. All assays were conducted at ambient temperature. Product fluorescence (excitation at 390 nm, emission at 460 nm) was monitored with a Labsystems Fluoroskan Ascent fluorescent plate reader. Product progress curves were generated over 15 minutes following generation of AMC product.
(§1) Potential inhibitors are screened using the above assay with variable concentrations of test compound. Reactions were initiated by addition of enzyme to buffered solutions of substrate and inhibitor. Ki values were calculated according to equation 1
(§2) where v0 is the velocity of the reaction, V is the maximal velocity, S is the concentration of substrate with Michaelis constant of KM, and I is the concentration of inhibitor.

Another data set concerns the target cathepsin L (Homo sapiens, UniProt P07711). The data set can be described thus: Cathepsin L Ki determination (H-D-Val-Leu-Lys-AMC substrate). The format is biochemical. As to the method: The procedure above with the following amendments is used for the determination of Ki for cathepsin L.
The enzyme is commercially available human cathepsin L (for example Calbiochem). The substrate is H-D-Val-Leu-Lys-AMC available from Bahcem. The assay buffer is 100 mM sodium acetate 1 mM EDTA, pH5.5) The DMSO stock (10 mM in 100% DMSO) is diluted to 10% in assay buffer. Enzyme is prepared at 5 nM concentration in assay buffer plus 1 mM dithiothreitol just before use. 2 ul of 10 mM inhibitor made up in 100% DMSO is dispensed into row A. 10 ul of 50 uM substrate (=1/200 dilution of 10 mM stock in DMSO, diluted in assay buffer)
as §1, §2

A further data set has as its target T2, cathepsin S (Homo sapiens, UniProt P25774).
T2 construct: made in house
The data set can be described thus: Cathepsin S Ki determination (boc-Val-Leu-Lys-AMC substrate). Type of data set: biochemical. The note with it: baculovirus-expressed human cathepsin S. As to the method: The assay uses baculovirus-expressed human cathepsin S and the boc-Val-Leu-Lys-AMC fluorescent substrate available from Bachem in a 384 well plate format, in which 7 test compounds can be tested in parallel with a positive control comprising a known cathepsin S inhibitor comparator.
280 μl/well of 12.5% DMSO are added to rows B-H of two columns of a 96 deep well polypropylene plate. 70 μl/well of substrate is added to row A. 2×250 μl/well of assay buffer (100 mM Na phosphate, 100 mM NaCl, pH 6.5) is added to row A, mixed, and double diluted down the plate to row H.
100 μl/well of assay buffer is added to columns 2-5 and 7-12 of 4 rows of a 96 well V bottom polypropylene plate. 200 μl/well of assay buffer is added to columns 1 and 6.
2 μl of each 10 mM test compound is added to a separate well on row A, columns 1-10. Add 90 μl assay buffer containing 1 mM DTT and 2 nM cathepsin S to each well of rows B-H and 180 μl to row A. Mix row A using a multichannel pipette and double dilute to row G. Mix row H and read in the fluorescent spectrophotometer.
The second test compound is added to column 6 of the top row, the third to column 1 of the second row etc. Add 1 μl of comparator to column 6 of the bottom row. Mix column 1 and double dilute to column 5. Mix column 6 and double dilute to column 10.
Using an 8-channel multistepping pipette set to 5×10 μl, distribute 10 μl/well of substrate to the 384 well assay plate. Distribute the first column of the substrate dilution plate to all columns of the assay plate starting at row A. The tip spacing of the multichannel pipette will correctly skip alternate rows. Distribute the second column to all columns starting at row B.
Using a 12-channel multistepping pipette set to 4×10 μl, distribute 10 μl/well of inhibitor to the 384 well assay plate. Distribute the first row of the inhibitor dilution plate to alternate rows of the assay plate starting at A1. The tip spacing of the multichannel pipette will correctly skip alternate columns. Similarly, distribute the second, third and fourth rows to alternate rows and columns starting at A2, B1 and B2 respectively.
Mix 20 ml assay buffer and 20 μl 1M DTT. Add sufficient cathepsin S to give 2 nM final concentration.
Using the a distributor such as a Multidrop 384, add 30 μl/well to all wells of the assay plate and read in fluorescent spectrophotomoter such as an Ascent.
Fluorescent readings, (excitation and emission wavelengths 390 nm and 460 nm respectively, set using bandpass filters) reflecting the extent of enzyme cleavage of the fluorescent substrate, […] the inhibitor, are linear rate fitted for each well.
Fitted rates for all wells for each inhibitor are fitted to the competitive inhibition equation using SigmaPlot 2000 to determine V, Km and Ki values.
as §1, §2

The conditions of data set [1]: reference markers for the permeability assay; cited from earlier work.

cathepsin L, sequence (P07711 114-333): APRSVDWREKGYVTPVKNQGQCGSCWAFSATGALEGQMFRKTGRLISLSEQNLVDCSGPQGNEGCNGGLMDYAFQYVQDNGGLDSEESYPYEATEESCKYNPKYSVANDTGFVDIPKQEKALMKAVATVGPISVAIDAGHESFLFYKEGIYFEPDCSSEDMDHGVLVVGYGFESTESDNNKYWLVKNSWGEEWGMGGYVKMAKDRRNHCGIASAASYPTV
T2 sequence (P25774 115-331): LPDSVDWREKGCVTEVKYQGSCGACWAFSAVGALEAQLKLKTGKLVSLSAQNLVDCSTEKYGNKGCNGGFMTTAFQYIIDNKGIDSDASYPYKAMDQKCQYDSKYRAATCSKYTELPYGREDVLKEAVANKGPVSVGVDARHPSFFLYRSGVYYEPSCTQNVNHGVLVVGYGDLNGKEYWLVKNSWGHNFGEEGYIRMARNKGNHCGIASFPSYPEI

Usually IC50 stands for the concentration that inhibits the measured activity by half. Take `CC(C)C[C@H](N[C@@H](c1ccc(-c2cccc(S(C)(=O)=O)c2)cc1)C(F)(F)F)C(=O)N1C[C@H](F)[C@H]2OCC(=O)[C@H]21` [Example 18, (3aS,6S,6aS)-6-Fluoro-4-{(S)-4-methyl-2-[(S)-2,2,2-trifluoro-1-(3′-methanesulfonyl-biphenyl-4-yl)-ethylamino]-pentanoyl}-tetrahydro-furo[3,2-b]pyrrol-3-one]: the half-maximal inhibitory concentration (IC50) on cathepsin K turned out to be 0.056 µM; against cathepsin L it was 94 µM; on cathepsin S, 19 µM.
Taken in the same sequence, the figures for `CC(C)C[C@H](N[C@@H](c1ccc(-c2ccc([S+](C)[O-])cc2)cc1)C(F)(F)F)C(=O)N1C[C@H](F)[C@H]2OCC(=O)[C@H]21` (stereo partly drawn) [Example 29, (3aS,6S,6aS)-6-Fluoro-4-{(S)-4-methyl-2-[(S)-2,2,2-trifluoro-1-(4′-methylsulfoxide-biphenyl-4-yl)-ethylamino]-pentanoyl}-tetrahydro-furo[3,2-b]pyrrol-3-one] were 0.018 µM, 180 µM and 27 µM.
Taken in the same sequence, the figures for `CC(C)C[C@H](N[C@@H](c1ccc(-c2csc(N3CCN(C)CC3)n2)cc1)C(F)(F)F)C(=O)N1C[C@H](F)[C@H]2OCC(=O)[C@H]21` [Example 58, (3aS,6S,6aS)-6-Fluoro-4-[(S)-4-methyl-2-((S)-2,2,2-trifluoro-1-{4-[2-(4-methyl-piperazin-1-yl)-thiazol-4-yl]-phenyl}-ethylamino)-pentanoyl]-tetrahydro-furo[3,2-b]pyrrol-3-one] were below 0.005 µM, 139 µM and 188 µM.
As for `N[C@@H](Cc1ccccc1)C(=O)O` [L-Phenylalanine], in data set [1], the “% absorption in man” value is recorded as 100%.
Turning to `CC(C)C[C@H](N[C@@H](c1ccc(-c2ccccc2F)cc1)C(F)(F)F)C(=O)N1C[C@H](F)[C@H]2OCC(=O)[C@H]21` [Example 26, (3aS,6S,6aS)-6-Fluoro-4-{(S)-4-methyl-2-[(S)-2,2,2-trifluoro-1-(2′-fluoro-biphenyl-4-yl)-ethylamino]-pentanoyl}-tetrahydro-furo[3,2-b]pyrrol-3-one], the values for the IC50 on cathepsin K, on cathepsin L and on cathepsin S were 0.044 µM, 25 µM and 22 µM, respectively.
The matching figures for `Cc1ccc(-c2ccc([C@H](N[C@@H](CC(C)C)C(=O)N3C[C@H](F)[C@H]4OCC(=O)[C@H]43)C(F)(F)F)cc2)cc1` [Example 33, (3aS,6S,6aS)-6-Fluoro-4-{(S)-4-methyl-2-[(S)-2,2,2-trifluoro-1-(4′-methyl-biphenyl-4-yl)-ethylamino]-pentanoyl}-tetrahydro-furo[3,2-b]pyrrol-3-one]: 0.19 µM, 20 µM and 20 µM.
Taken in the same sequence, the figures for `CC(C)C[C@H](N[C@@H](c1ccc(-c2ccc(S(C)(=O)=O)cc2)cc1)C(F)(F)F)C(=O)N1C[C@H](F)[C@H]2OCC(=O)[C@H]21` [Example 14, (3aS,6S,6aS)-6-Fluoro-4-[(S)-4-methyl-2-{(S)-2,2,2-trifluoro-1-(4′-methanesulfonyl-biphenyl-4-yl)-ethylamino]-pentanoyl}-tetrahydro-furo[3,2-b]pyrrol-3-one] were 0.029 µM, 100 µM and 36 µM.
Take `OC[C@@H](O)[C@@H](O)[C@H](O)[C@H](O)CO` [Mannitol]: the “% absorption in man” value in data set [1] is listed as 16%.
Take `CN(Cc1cnc2nc(N)nc(N)c2n1)c1ccc(C(=O)N[C@@H](CCC(=O)O)C(=O)O)cc1` [Methotrexate]: the “% absorption in man” value in data set [1] is 20%.
Consider `CC(C)C[C@H](N[C@@H](c1ccc(-c2ccc(F)cc2)cc1)C(F)(F)F)C(=O)N1C[C@H](F)[C@H]2OCC(=O)[C@H]21` [Example 20, (3aS,6S,6aS)-6-Fluoro-4-{(S)-4-methyl-2-[(S)-2,2,2-trifluoro-1-(4′-fluoro-biphenyl-4-yl)-ethylamino]-pentanoyl}-tetrahydro-furo[3,2-b]pyrrol-3-one], for which the IC50 on cathepsin K amounted to 0.18 µM; at cathepsin L, 30 µM; against cathepsin S, 37 µM.
As for `CSc1ccc(-c2ccc([C@H](N[C@@H](CC(C)C)C(=O)N3C[C@H](F)[C@H]4OCC(=O)[C@H]43)C(F)(F)F)cc2)cc1` [Example 28, (3aS,6S,6aS)-6-Fluoro-4-{(S)-4-methyl-2-[(S)-2,2,2-trifluoro-1-(4′-methylsulfanyl-biphenyl-4-yl)-ethylamino]-pentanoyl}-tetrahydro-furo[3,2-b]pyrrol-3-one], the half-inhibitory concentration (IC50) on cathepsin K was determined as 0.051 µM; against cathepsin L it was 5.5 µM; against cathepsin S, 10 µM.
The matching figures for `COc1ccc(-c2ccc([C@H](N[C@@H](CC(C)C)C(=O)N3C[C@H](F)[C@H]4OCC(=O)[C@H]43)C(F)(F)F)cc2)cc1` [Example 31, (3aS,6S,6aS)-6-Fluoro-4-{(S)-4-methyl-2-[(S)-2,2,2-trifluoro-1-(4′-methoxy-biphenyl-4-yl)-ethylamino]-pentanoyl}-tetrahydro-furo[3,2-b]pyrrol-3-one]: 0.07 µM, 29 µM and 19 µM.
